# Assay results taken from US20100137344A1, “INDUCTION OF ANALGESIA IN NEUROPATHIC PAIN” (University Court of the University of Edinburgh, priority 2006, published 2010).
# System: rats with chronic constriction injury (CCI) to sciatic nerve
# Assay: Topical application to paws of CCI rats, behavioural reflex testing (thermal PWL, mechanical PWT)
# Type: in vivo, rat
# Details: for % reversal of ipsilateral sensitisation, PWL / % reversal of ipsilateral sensitisation, PWT: 10-25 minutes after icilin
# Method: Pain models were generated under halothane anaesthesia (Zeneca, Cheshire, UK). For the chronic constriction injury (CCI) model of neuropathic pain, four ligatures were tied loosely to constrict the sciatic nerve at mid-thigh level (as described previously^[39]). An inflammatory pain model was generated by injecting 100 μl of Complete Freund's Adjuvant (CFA, Sigma-Aldrich Ltd) into the ventral surface of the right hindpaw^[39]. A model of peripheral demyelination-induced pain was produced by focal application of lysolecithin to the sciatic nerve^[40]. Peak behavioural sensitisation was observed post-surgically between days 10-16 for CCI, 1-3 for CFA, and 7-14 for lysolecithin, when pharmacological and electrophysiological experiments and tissue removal were conducted.
# Thermal sensitivity was assessed by measuring paw withdrawal latency (PWL, s) in response to a noxious thermal stimulus (Hargreaves' thermal stimulator, Linton Instrumentation, Diss, UK) directed to the hindpaw mid-plantar glabrous surface. Mechanical sensitivity was recorded as the paw withdrawal threshold (PWT, mN/mm^2) to calibrated von Frey filaments (Stoelting, Ill., US), as previously described^[39]. Sensitivity to noxious cold was assessed by placing animals in a waterbath with an aluminium floor containing 1 cm deep 4° C. water and counting the time the paw was held suspended over a 20 s period.
# Icilin was applied at concentrations of 2.5-500 μM (in water with 0.2% DMF), by placing CCI or naïve rats unrestrained for 5 min in a 1 cm deep waterbath (sufficient to cover paws), which was thermostatically controlled to a temperature of 30° C., or by very lightly anaesthetising rats and immersing hindpaws in small tubes containing 5 ml icilin (500 μM-5 mM, with a vehicle of 45% dimethylformamide in 0.2% aqueous Tween 80) for 5 min, followed by sensory testing for 60-80 mins. The effects of (−)-menthol and its stereoisomers isomenthol (1S,2R,5R-menthol,) and (+)-menthol (1S,2R,5S(+)-menthol) (4-16 mM in 80% ethanol) were also assessed. Relevant vehicles were always assessed in similar experiments. As a contrast, the effect of cinnamaldehyde (1.5 mM in water) and the effect of cinnamaldehyde with additional icilin (80 μM in water with 0.2% DMF) were assessed in naïve animals. The effects of icilin (80 μM) were further assessed in CCI animals that had undergone antisense and mis-sense treatment for knockdown of TRPM8 or immediately following intrathecal injection of either LY 341495 or UBP 1112. […] The effects of brief paw immersion at different temperatures (10-22° C. for 5 min) on CCI rats were assessed by mechanical testing. The effects of intrathecal LY 341495 or UBP 1112 on the reversal of ipsilateral sensitisation in CCI following a 16° C. cool challenge for 5 min were measured. Reflex testing commenced 5 minutes following challenge, unless animals had been anaesthetised, in which case 15 minutes was allowed for recovery. Six replicate animals were tested in all pharmacological experiments.
# Antisense and mis-sense oligonucleotides were 22-mers with phosphorothioate bonds at the last two positions at 5′ and 3′ ends (MWG Biotech, Ebersberg, Germany). Antisense extended from base −10 to base +12 relative to the start of the open reading frame for the rat TRPM8 gene: 5′ C*T*CGAAGGACATCTTGCCGT*G*G 3′, where * represents phosphorothioate linkages. Mis-sense was designed with 4 inversions of C/G or A/T as appropriate at residues 3, 11, 14 and 22, preserving overall G/C content. BLAST searches of both oligonucleotides indicated no significant complementarity to any known gene sequence. 14-day or 7-day osmotic minipumps (for CCI experiments or naïve electrophysiology experiments respectively—Alzet Minipump, models 2002, 2001; Charles River, UK) containing oligonucleotides (1 μg/μl in sterile saline) were connected to canulae inserted under the dura of the spinal cord to level L5/6 and produced a predicted infusion rate of 0.5 μl/h. […]
# [1] = icilin 80 μM topical, antisense-treated CCI animals
# [2] = icilin 80 μM topical, mis-sense-treated CCI animals
# [3] = icilin 1000 μM applied to paw, CCI Con, 15 mins
# [4] = icilin 1000 μM applied to paw, CCI Con, 50 mins
# [5] = icilin 1000 μM applied to paw, CCI Ipsi, 15 mins
# [6] = icilin 1000 μM applied to paw, CCI Ipsi, 50 mins
# [7] = icilin 2500 μM applied to paw, CCI Con, 15 mins
# [8] = icilin 2500 μM applied to paw, CCI Con, 50 mins
# [9] = icilin 2500 μM applied to paw, CCI Ipsi, 15 mins
# [10] = icilin 2500 μM applied to paw, CCI Ipsi, 50 mins
# [11] = icilin 5000 μM applied to paw, CCI Con, 15 mins
# [12] = icilin 5000 μM applied to paw, CCI Con, 50 mins
# [13] = icilin 5000 μM applied to paw, CCI Ipsi, 15 mins
# [14] = icilin 5000 μM applied to paw, CCI Ipsi, 50 mins
# [15] = icilin topical, antisense osmotic pumps depleted, 18 days following surgery
compound,measurement,setting,value
"CC(C)[C@@H]1CC[C@@H](C)C[C@H]1O [(−)-menthol, 1R,2S,5R-(−)-menthol]",reversal of sensitised responses,"topical, (−)-menthol 4 mM, isomenthol and (+)-menthol 8 mM and 16 mM",Specific reversal of sensitised responses
"O=C1NC(c2cccc([N+](=O)[O-])c2)=CCN1c1ccccc1O [icilin, 1-(2′-hydroxyphenyl)-4-(3″-nitrophenyl)-1,2,3,6-tetrahydropyrimidin-2-one]",reversal of CCI-induced behavioural reflex sensitisation to thermal and mechanical stimuli,"icilin 80 μM topical, 5 min, bath at 30° C.",striking reversal
same,"% reversal of ipsilateral sensitisation, PWL",[1],7.7±7.4%
same,"% reversal of ipsilateral sensitisation, PWT",[1],9.4±8.2%
same,"% reversal of ipsilateral sensitisation, PWL",[2],82.8±6.9%
same,"% reversal of ipsilateral sensitisation, PWT",[2],58.7±8.2%
same,analgesia on daily repeated application (Hargreaves' test),icilin 200 μM topical over four successive days,consistently causes analgesia
same,Mechanical PWT,[3],4530.1 ± 300.5 mN/mm^2
same,Thermal PWL,[3],16.1 ± 0.5 s
same,Mechanical PWT,[4],4530.1 ± 300.5 mN/mm^2
same,Thermal PWL,[4],15.2 ± 0.4 s
same,Mechanical PWT,[5],702.8 ± 185.3 mN/mm^2
same,Thermal PWL,[5],16.4 ± 0.8 s
same,Mechanical PWT,[6],702.8 ± 185.3 mN/mm^2
same,Thermal PWL,[6],8.6 ± 0.2 s
same,Mechanical PWT,[7],4454.9 ± 245.9 mN/mm^2
same,Thermal PWL,[7],16.8 ± 0.9 s
same,Mechanical PWT,[8],4454.9 ± 245.9 mN/mm^2
same,Thermal PWL,[8],15.3 ± 0.7 s
same,Mechanical PWT,[9],651.9 ± 193.0 mN/mm^2
same,Thermal PWL,[9],16.4 ± 0.9 s
same,Mechanical PWT,[10],651.9 ± 193.0 mN/mm^2
same,Thermal PWL,[10],8.4 ± 0.6 s
same,Mechanical PWT,[11],2040.2 ± 115.2 mN/mm^2
same,Thermal PWL,[11],16.1 ± 0.9 s
same,Mechanical PWT,[12],4830.6 ± 0.0 mN/mm^2
same,Thermal PWL,[12],13.4 ± 0.7 s
same,Mechanical PWT,[13],412.2 ± 24.3 mN/mm^2
same,Thermal PWL,[13],16.7 ± 1.0 s
same,Mechanical PWT,[14],736.0 ± 26.3 mN/mm^2
same,Thermal PWL,[14],7.2 ± 0.6 s
same,"% reversal of sensitisation, PWL",[15],83.7±10.1%
same,"% reversal of sensitisation, PWT",[15],54.0±7.2%
